Results taken from ChEMBL document CHEMBL5715949, “Discovery of a selective irreversible BMX inhibitor for prostate cancer” (ACS Chem Biol, 2013).
Active and inactive are the calls of the source. The rule behind the calls is not given here.

How the values were obtained:
[1] = biological target: MAP/microtubule affinity-regulating kinase 4 (Homo sapiens) (UniProt Q96L34); test: Inhibition of MARK4 (unknown origin) assessed as remaining activity at 1 uM by Kinome scan method relative to control
[2] = biological target: Insulin receptor (Homo sapiens) (UniProt P06213); test: Inhibition of INSR (unknown origin) assessed as remaining activity at 1 uM by Kinome scan method relative to control
[3] = biological target: Tyrosine-protein kinase JAK2 (Homo sapiens) (UniProt O60674); test: Inhibition of JAK2 JH1 domain (unknown origin) assessed as remaining activity at 1 uM by Kinome scan method relative to control
[4] = biological target: Serine/threonine-protein kinase ULK3 (Homo sapiens) (UniProt Q6PHR2); test: Inhibition of ULK3 (unknown origin) assessed as remaining activity at 1 uM by Kinome scan method relative to control
[5] = test system: Mast/stem cell growth factor receptor Kit (Homo sapiens), P10721 [A829P]; test: Inhibition of KIT A829P mutant (unknown origin) assessed as remaining activity at 1 uM by Kinome scan method relative to control
[6] = biological target: Serine/threonine-protein kinase 3 (Homo sapiens) (UniProt Q13188); test: Inhibition of MST2 (unknown origin) assessed as remaining activity at 1 uM by Kinome scan method relative to control
[7] = test system: Tyrosine-protein kinase ABL1 (Homo sapiens), P00519 [E255K]; test: Inhibition of phosphorylated ABL1 E255K mutant (unknown origin) assessed as remaining activity at 1 uM by Kinome scan method relative to control
[8] = Induction of cell cycle arrest in human RV-1 cells assessed as accumulation of cells at G2/M phase at 2.5 uM incubated for 5 days by propidium iodide staining based flow cytometric analysis (reference value: 11.4 %); format: functional; details: time 5 day
[9] = biological target: Activin receptor type-1B (Homo sapiens) (UniProt P36896); test: Inhibition of ACVR1B (unknown origin) assessed as remaining activity at 1 uM by Kinome scan method relative to control
[10] = Inhibition of PI3K/AKT/mTOR signalling pathway in human RV-1 cells assessed as decrease in GSKalpha/beta phosphorylation at 2.5 uM incubated for 4 hrs by immunoblot analysis; format: cell-based
[11] = biological target: Interleukin-1 receptor-associated kinase 4 (Homo sapiens) (UniProt Q9NWZ3); test: Inhibition of IRAK4 (unknown origin) assessed as remaining activity at 1 uM by Kinome scan method relative to control
[12] = biological target: TRAF2 and NCK-interacting protein kinase (Homo sapiens) (UniProt Q9UKE5); test: Inhibition of TNIK (unknown origin) assessed as remaining activity at 1 uM by Kinome scan method relative to control
[13] = biological target: cAMP-dependent protein kinase catalytic subunit alpha (Homo sapiens) (UniProt P17612); test: Inhibition of PKAC-alpha (unknown origin) assessed as remaining activity at 1 uM by Kinome scan method relative to control
[14] = biological target: Cyclin-dependent kinase-like 2 (Homo sapiens) (UniProt Q92772); test: Inhibition of CDKL2 (unknown origin) assessed as remaining activity at 1 uM by Kinome scan method relative to control
[15] = biological target: Interleukin-1 receptor-associated kinase 1 (Homo sapiens) (UniProt P51617); test: Inhibition of IRAK1 (unknown origin) assessed as remaining activity at 1 uM by Kinome scan method relative to control
[16] = test system: RV-1; test: Antiproliferative activity against human RV-1 cells assessed as reduction in cell viability at 500 to 2500 nM incubated for 5 days in presence of Torin1 by CellTiter-Glo assay; format: functional, cell-based; details: dose 500-2500 nM, time 5.0 day
[17] = Inhibition of PI3K/AKT/mTOR signalling pathway in human RV-1 cells assessed as decrease in 4EBP phosphorylation at T37/46 residue at 2.5 uM incubated for 5 days in presence of MK2206 by immunoblot analysis; format: cell-based; details: time 5.0 day
[18] = test system: RV-1; test: Antiproliferative activity against human RV-1 cells assessed as reduction in cell viability at 500 to 2500 nM incubated for 5 days in presence of WYE125132 by CellTiter-Glo assay; format: functional, cell-based; details: dose 500-2500 nM, time 5.0 day
[19] = biological target: Myosin light chain kinase family member 4 (Homo sapiens) (UniProt Q86YV6); test: Inhibition of MYLK4 (unknown origin) assessed as remaining activity at 1 uM by Kinome scan method relative to control
[20] = test system: Fibroblast growth factor receptor 3 (Homo sapiens), P22607 [G697C]; test: Inhibition of FGFR3 G697C mutant (unknown origin) assessed as remaining activity at 1 uM by Kinome scan method relative to control
[21] = biological target: Vascular endothelial growth factor receptor 2 (Homo sapiens) (UniProt P35968); test: Inhibition of VEGFR2 (unknown origin) assessed as remaining activity at 1 uM by Kinome scan method relative to control
[22] = test system: Phosphatidylinositol 4,5-bisphosphate 3-kinase catalytic subunit alpha isoform (Homo sapiens), P42336 [I800L]; test: Inhibition of PIK3CA I800L mutant (unknown origin) assessed as remaining activity at 1 uM by Kinome scan method relative to control
[23] = test system: Receptor-type tyrosine-protein kinase FLT3 (Homo sapiens), P36888 [N841I]; test: Inhibition of FLT3 N841I mutant (unknown origin) assessed as remaining activity at 1 uM by Kinome scan method relative to control
[24] = biological target: Ephrin type-A receptor 1 (Homo sapiens) (UniProt P21709); test: Inhibition of EPHA1 (unknown origin) assessed as remaining activity at 1 uM by Kinome scan method relative to control
[25] = Down regulation of BMX protein expression in human RV-1 cells expressing wild type BMX assessed protein expression level at 2.5 uM pre incubated for 4 hrs followed by compound wash out and additon of CHX and measured after 16 hrs by immunoblot analysis (reference value: 0.98 to 1.01); format: functional
[26] = biological target: Rho-associated protein kinase 2 (Homo sapiens) (UniProt O75116); test: Inhibition of ROCK2 (unknown origin) assessed as remaining activity at 1 uM by Kinome scan method relative to control
[27] = biological target: Activin receptor type-2A (Homo sapiens) (UniProt P27037); test: Inhibition of ACVR2A (unknown origin) assessed as remaining activity at 1 uM by Kinome scan method relative to control
[28] = biological target: Cyclin-dependent kinase 8 (Homo sapiens) (UniProt P49336); test: Inhibition of CDK8 (unknown origin) assessed as remaining activity at 1 uM by Kinome scan method relative to control
[29] = biological target: Platelet-derived growth factor receptor beta (Homo sapiens) (UniProt P09619); test: Inhibition of PDGFRbeta (unknown origin) assessed as remaining activity at 1 uM by Kinome scan method relative to control
[30] = biological target: SRSF protein kinase 1 (Homo sapiens) (UniProt Q96SB4); test: Inhibition of SRPK1 (unknown origin) assessed as remaining activity at 1 uM by Kinome scan method relative to control
[31] = biological target: Serine/threonine-protein kinase MARK1 (Homo sapiens) (UniProt Q9P0L2); test: Inhibition of MARK1 (unknown origin) assessed as remaining activity at 1 uM by Kinome scan method relative to control

Activin receptor type-1B (Homo sapiens), sequence (P36896 whole entry): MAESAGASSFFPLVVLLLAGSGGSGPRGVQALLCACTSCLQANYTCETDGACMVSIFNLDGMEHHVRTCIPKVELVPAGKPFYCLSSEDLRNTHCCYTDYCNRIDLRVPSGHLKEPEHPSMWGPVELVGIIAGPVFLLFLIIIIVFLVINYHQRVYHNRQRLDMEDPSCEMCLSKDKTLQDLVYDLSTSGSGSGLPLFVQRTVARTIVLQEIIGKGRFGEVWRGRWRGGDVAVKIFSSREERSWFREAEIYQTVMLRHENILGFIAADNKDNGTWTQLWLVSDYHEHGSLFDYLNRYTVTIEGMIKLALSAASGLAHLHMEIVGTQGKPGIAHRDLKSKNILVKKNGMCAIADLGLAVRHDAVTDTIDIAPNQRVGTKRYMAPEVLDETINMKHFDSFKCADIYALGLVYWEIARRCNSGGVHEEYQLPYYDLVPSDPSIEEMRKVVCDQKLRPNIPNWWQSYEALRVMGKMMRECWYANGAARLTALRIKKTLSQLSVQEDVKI
Cyclin-dependent kinase-like 2 (Homo sapiens), sequence (Q92772 whole entry): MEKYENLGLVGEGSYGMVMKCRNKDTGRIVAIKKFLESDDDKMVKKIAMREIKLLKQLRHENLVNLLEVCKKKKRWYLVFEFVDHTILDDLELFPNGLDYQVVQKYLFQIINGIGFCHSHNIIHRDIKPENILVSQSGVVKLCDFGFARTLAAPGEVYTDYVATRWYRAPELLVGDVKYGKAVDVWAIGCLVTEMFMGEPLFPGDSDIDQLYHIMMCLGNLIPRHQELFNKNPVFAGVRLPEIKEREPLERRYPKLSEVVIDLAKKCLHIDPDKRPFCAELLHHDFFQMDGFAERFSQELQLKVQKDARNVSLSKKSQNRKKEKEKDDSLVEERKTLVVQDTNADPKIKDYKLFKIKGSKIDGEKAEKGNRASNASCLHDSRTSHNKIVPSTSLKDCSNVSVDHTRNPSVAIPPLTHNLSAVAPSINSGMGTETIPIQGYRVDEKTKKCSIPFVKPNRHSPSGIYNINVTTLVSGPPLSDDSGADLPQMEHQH
Insulin receptor (Homo sapiens), sequence (P06213 28-758 limits assumed): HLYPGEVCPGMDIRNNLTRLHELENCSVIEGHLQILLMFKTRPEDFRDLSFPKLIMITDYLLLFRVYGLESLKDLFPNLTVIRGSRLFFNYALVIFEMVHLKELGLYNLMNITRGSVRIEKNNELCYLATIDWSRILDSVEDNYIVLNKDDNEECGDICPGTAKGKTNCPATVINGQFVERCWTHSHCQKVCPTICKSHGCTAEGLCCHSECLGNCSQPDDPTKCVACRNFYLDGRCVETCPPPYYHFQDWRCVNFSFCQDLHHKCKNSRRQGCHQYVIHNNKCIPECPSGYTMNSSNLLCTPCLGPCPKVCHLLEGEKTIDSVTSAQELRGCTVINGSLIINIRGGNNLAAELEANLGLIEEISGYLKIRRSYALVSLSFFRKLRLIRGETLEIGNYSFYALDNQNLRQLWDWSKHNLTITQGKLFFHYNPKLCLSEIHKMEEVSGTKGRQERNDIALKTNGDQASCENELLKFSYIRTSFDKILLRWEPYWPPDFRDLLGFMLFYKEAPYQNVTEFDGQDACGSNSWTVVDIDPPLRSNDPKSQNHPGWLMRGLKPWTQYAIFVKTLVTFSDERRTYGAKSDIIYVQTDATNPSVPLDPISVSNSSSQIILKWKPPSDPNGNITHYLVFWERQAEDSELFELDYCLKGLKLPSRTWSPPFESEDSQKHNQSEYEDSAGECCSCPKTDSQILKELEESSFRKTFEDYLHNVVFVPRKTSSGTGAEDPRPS
Insulin receptor (Homo sapiens), sequence (P06213 763-1382 limits assumed): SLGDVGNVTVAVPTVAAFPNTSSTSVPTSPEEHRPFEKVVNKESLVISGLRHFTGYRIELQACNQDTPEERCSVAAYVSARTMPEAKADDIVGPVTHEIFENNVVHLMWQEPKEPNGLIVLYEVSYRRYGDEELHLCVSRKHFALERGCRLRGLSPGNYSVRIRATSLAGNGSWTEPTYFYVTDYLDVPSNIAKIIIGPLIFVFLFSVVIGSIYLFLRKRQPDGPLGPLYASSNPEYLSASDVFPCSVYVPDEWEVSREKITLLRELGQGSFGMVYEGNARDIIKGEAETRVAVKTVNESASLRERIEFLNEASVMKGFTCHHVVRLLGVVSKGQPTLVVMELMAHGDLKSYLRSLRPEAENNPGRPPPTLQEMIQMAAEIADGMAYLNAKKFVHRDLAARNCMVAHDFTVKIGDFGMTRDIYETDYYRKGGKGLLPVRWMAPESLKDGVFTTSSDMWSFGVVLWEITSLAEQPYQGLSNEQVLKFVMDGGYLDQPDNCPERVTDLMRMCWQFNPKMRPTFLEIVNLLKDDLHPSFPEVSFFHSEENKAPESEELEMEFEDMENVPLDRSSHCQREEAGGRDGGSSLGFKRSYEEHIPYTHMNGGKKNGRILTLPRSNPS
Mast/stem cell growth factor receptor Kit (Homo sapiens), P10721 [A829P], sequence (P10721 whole entry A829P): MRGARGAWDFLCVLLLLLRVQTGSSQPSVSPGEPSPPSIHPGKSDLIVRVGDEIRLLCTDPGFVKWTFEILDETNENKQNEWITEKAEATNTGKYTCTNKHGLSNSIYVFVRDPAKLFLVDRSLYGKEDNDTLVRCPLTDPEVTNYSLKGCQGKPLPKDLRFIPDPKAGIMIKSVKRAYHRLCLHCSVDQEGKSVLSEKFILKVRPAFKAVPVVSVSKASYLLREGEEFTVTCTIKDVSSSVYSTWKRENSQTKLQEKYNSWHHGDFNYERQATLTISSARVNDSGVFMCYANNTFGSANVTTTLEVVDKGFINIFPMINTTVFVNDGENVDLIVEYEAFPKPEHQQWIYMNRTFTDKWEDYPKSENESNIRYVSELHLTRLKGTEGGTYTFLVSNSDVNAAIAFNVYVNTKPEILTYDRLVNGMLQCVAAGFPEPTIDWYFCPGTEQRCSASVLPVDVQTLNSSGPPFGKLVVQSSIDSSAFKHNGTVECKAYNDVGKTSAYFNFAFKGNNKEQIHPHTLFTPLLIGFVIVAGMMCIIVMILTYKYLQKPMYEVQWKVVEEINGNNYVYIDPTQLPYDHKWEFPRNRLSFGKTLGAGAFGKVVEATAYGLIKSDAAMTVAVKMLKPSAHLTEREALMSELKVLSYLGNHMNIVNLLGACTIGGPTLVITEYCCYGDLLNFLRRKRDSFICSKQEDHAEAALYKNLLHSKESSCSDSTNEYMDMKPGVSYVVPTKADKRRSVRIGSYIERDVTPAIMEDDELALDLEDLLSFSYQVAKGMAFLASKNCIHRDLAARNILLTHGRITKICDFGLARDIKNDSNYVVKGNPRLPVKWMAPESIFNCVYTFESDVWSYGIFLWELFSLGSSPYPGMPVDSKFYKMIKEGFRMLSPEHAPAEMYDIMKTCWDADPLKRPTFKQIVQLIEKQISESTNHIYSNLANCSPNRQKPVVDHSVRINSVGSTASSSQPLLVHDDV
Cyclin-dependent kinase 8 (Homo sapiens), sequence (P49336 whole entry): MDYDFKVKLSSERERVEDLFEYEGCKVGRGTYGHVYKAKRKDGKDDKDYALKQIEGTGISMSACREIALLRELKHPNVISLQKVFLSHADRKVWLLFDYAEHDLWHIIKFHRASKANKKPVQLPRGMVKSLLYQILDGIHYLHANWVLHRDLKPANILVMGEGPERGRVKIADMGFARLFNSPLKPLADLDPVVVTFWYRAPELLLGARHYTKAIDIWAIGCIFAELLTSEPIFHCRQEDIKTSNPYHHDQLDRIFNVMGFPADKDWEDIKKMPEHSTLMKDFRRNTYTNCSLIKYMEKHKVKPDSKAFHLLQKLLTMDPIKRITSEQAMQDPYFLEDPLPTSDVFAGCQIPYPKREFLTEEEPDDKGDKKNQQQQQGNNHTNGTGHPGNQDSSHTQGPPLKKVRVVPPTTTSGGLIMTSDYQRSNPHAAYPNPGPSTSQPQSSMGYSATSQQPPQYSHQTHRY
Interleukin-1 receptor-associated kinase 1 (Homo sapiens), sequence (P51617 whole entry, looked up): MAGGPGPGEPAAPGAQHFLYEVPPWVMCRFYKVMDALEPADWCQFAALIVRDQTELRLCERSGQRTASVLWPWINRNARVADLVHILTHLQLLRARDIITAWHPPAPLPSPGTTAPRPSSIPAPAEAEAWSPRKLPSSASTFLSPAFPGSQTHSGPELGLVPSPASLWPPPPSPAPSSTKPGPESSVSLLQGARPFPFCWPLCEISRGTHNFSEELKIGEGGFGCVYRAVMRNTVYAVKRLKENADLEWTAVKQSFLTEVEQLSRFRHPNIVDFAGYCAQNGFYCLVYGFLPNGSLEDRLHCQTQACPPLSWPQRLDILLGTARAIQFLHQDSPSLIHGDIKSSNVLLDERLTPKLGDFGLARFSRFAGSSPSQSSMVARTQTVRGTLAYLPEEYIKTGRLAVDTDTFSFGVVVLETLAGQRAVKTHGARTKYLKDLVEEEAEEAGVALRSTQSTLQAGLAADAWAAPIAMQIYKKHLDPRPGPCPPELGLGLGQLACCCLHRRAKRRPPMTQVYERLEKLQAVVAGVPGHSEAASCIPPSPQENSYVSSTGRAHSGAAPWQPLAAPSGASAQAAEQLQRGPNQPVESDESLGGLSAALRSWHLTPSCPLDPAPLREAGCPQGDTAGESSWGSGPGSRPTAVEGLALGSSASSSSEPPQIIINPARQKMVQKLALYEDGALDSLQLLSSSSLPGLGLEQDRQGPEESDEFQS
Interleukin-1 receptor-associated kinase 4 (Homo sapiens), sequence (Q9NWZ3 whole entry): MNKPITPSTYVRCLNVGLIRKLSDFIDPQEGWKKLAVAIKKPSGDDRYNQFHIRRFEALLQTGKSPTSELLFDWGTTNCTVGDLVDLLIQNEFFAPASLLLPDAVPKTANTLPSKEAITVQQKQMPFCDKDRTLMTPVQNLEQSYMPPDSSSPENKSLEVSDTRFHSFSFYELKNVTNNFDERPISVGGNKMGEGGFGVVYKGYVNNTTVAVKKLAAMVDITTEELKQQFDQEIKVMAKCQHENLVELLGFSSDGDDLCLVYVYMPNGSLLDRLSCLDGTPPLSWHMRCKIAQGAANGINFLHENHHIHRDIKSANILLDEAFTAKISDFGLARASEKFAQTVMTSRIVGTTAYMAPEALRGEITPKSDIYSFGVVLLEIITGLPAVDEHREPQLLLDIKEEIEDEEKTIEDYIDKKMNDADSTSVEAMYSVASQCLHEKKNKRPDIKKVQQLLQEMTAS

SMILES: C=CC(=O)Nc1cc(-n2c(=O)ccc3cnc4ccc(-c5ccc(NS(C)(=O)=O)cc5)cc4c32)ccc1C
- Activity [1]: 80%
- Activity [2]: 93%
- Activity [3]: 86%
- Activity [4]: 80%
- Activity [5]: 74%
- Activity [6]: 62%
- Activity [7]: 63%
- Activity [8]: 9.1%
- Activity [9]: 84%
- inhibition [10]: inactive
- Activity [11]: 84%
- Activity [12]: 96%
- Activity [13]: 83%
- Activity [14]: 93%
- Activity [15]: 72%
- Activity [16]: Active
- inhibition [17]: Active
- Activity [18]: Active
- Activity [19]: 96%
- Activity [20]: 26%
- Activity [21]: 97%
- Activity [22]: 46%
- Activity [23]: 85%
- Activity [24]: 92%
- Activity [25]: 0.28
- Activity [26]: 87%
- Activity [27]: 94%
- Activity [28]: 76%
- Activity [29]: 76%
- Activity [30]: 78%
- Activity [31]: 97%
